In patent US20240010684A1, “MASP INHIBITORY COMPOUNDS AND USES THEREOF” (BAYER AKTIENGESELLSCHAFT, priority 2020, published 2024) one finds IC50 data, which are given here for eleven molecules.

Where a SMILES comes first, the peptide text is derived from it. Bridges are numbered along the chain shown (N, C = ends). [ ]: non-standard residue; d: D form. Oic = O=C(O)[C@@H]1C[C@@H]2CCCC[C@@H]2N1; tBuAla = CC(C)(C)C[C@H](N)C(=O)O; PEG4 = NCCOCCOCCOCCOCCC(=O)O; Pen = CC(C)(S)[C@H](N)C(=O)O; NMeC = CN[C@@H](CS)C(=O)O; Orn = NCCC[C@H](N)C(=O)O; Dab = NCC[C@H](N)C(=O)O; Dap = NC[C@H](N)C(=O)O; Ahx = NCCCCCC(=O)O; Sar = CNCC(=O)O

Experiment [1] deals with human MASP2 (Homo sapiens (Human), UniProt O00187). The experiment is described as follows: Biochemical human MASP2 assay (FRET substrate). As to conditions: Average IC50; recombinant human MASP2; read-out: human MASP2 IC50. In short, it runs like this: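 Mature recombinant human MASP2, expressed in HEK293 and purified by Ni-NTA affinity, was reacted with a DABCYL FRET peptide substrate (added as a 60 μM solution) for 60-120 min at 32 C. Fluorescence increase was read at ex 340/em 490 nm; IC50 was derived from % inhibition versus compound concentration.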

Experiment [2] has as its target human MASP1 (Homo sapiens (Human), UniProt P48740). The experiment is described as follows: Biochemical human MASP1 assay (FRET substrate). As to conditions: Average IC50; recombinant human MASP1; read-out: human MASP1 IC50. In outline: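 Recombinant human MASP1 (aa 297-699, C-terminal His tag, HEK293-expressed, Ni-NTA purified) diluted to 20 nM in 50 mM HEPES pH 8,0, 100 mM NaCl, 0,01% CHAPS, 0.5 mM glutathione, preincubated with compound in DMSO; reaction started with 20 μM ABZ/Dnp FRET substrate solution. Fluorescence (ex 320/em 420 nm) after 60-120 min at 32 C; IC50 from % inhibition.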

In experiment [3] the test system is Human C3-DEPOSITION SERUM. The experiment is described as follows: C3 deposition assay, human serum on mannan-coated plates. It counts as biochemical. As to conditions: Average IC50, read-out: Human C3-DEPOSITION SERUM IC50. The method, then:
3. C3 Deposition Assay (Human, Rat, Mouse, Dog, Pig))
The C3 deposition assay was conducted essentially as described (reference). Multiwell plates (Greiner-Nunc 384 Maxi Sorp #464718) were coated over night with Mannan from Saccharomyces cerevisiae (Sigma M7504, 10 μg/mL in 0.05 M carbonate-bicarbonate buffer, pH 9.6) at 4° C. Wells were washed three times with TBS and subsequently incubated for 2 hours with 50 μL of 1% bovine serum albumin (BSA) in Tris-buffered saline (TBS) at 37° C. in order to block non-specific binding. After this step and each of the following incubation steps wells were washed three times with C3 wash buffer (TBS; 0.05% Tween 20; 5 mM CaCl2). […] When appropriately developed the color reaction was stopped by addition of 25 μL of stop solution (Sigma S5814) and quantified on a photometer by measuring absorption at a wavelength of 450 nm. Antibodies were diluted in C3 wash buffer supplemented with 0.5% BSA.

Chain of human MASP2 (O00187 other isoform, or with tags, fused parts or gaps): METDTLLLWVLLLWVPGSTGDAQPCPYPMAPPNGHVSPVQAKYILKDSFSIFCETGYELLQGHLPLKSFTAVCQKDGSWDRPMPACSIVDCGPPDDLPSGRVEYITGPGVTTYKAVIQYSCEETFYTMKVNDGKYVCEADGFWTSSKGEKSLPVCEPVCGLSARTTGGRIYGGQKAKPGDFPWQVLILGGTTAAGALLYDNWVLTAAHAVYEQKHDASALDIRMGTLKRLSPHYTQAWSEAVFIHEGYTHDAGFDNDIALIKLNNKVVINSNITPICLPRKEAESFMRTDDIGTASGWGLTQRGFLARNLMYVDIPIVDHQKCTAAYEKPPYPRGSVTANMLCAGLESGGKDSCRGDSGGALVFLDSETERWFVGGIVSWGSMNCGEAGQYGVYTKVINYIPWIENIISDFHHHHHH
Chain of human MASP1 (P48740 other isoform, or with tags, fused parts or gaps): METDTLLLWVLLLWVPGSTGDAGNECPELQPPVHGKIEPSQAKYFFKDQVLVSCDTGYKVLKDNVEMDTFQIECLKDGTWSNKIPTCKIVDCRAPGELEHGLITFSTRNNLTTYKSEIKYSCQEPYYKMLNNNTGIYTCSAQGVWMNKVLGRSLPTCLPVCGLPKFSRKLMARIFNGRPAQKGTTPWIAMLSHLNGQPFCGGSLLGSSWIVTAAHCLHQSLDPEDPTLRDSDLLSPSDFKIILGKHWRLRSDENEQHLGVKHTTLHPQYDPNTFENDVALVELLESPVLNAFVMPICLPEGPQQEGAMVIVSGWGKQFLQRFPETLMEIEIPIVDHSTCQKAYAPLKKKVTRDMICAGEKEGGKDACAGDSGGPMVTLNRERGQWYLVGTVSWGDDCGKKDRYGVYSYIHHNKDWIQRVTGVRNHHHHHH

For `CC[C@H](C)[C@@H]1NC(=O)[C@H](CCN)NC(=O)[C@@H]2CCCN2C(=O)[C@H]([C@@H](C)CC)NC(=O)[C@H]2NC(=O)[C@H]([C@@H](C)CC)NC(=O)[C@@H]3CCCN3C(=O)[C@@H]3CCCN3C(=O)[C@H](CC(C)(C)C)NC(=O)[C@H](CO)NC(=O)[C@H](CCCNC(=N)N)NC(=O)[C@H](CO)NC(=O)[C@H](CSSC2(C)C)NC1=O` [Example 56, N-{3-[(6S,9S,12S,15S,18R,21S,24S,26aS,32S,35R,38S,40aS,45aS)-24-(2-aminoethyl)-21,32,38-tri[(2S)-butan-2-yl]-6-(2,2-dimethylpropyl)-9,15-bis(hydroxymethyl)-46,46-dimethyl-5,8,11,14,17,20,23,26,31,34,37,40,45-tridecaoxotetratetracontahydro-1H-18,35-(methanodithiomethano)tripyrrolo[1,2-a:1′,2′-d:1″,2″-p]-[1,4,7,10,13,16,19,22,25,28,31,34,37]tridecaazacyclononatriacontin-12-yl]propyl}guanidine] (cyclo(CSRS[tBuAla]PPI[Pen]IP[Dab]I); disulfide 1-9), the IC50 (in general, the concentration at which inhibition is half-maximal) was found to be 1100 nM in experiment [1], 86 nM in experiment [2] and 566 nM in experiment [3].

As for `CC[C@H](C)[C@@H]1NC(=O)[C@@H](N)CNC(=O)[C@@H]2CCCN2C(=O)[C@H]([C@@H](C)CC)NC(=O)[C@H]2NC(=O)[C@H]([C@@H](C)CC)NC(=O)[C@@H]3C[C@@H]4CCCC[C@@H]4N3C(=O)[C@@H]3CCCN3C(=O)[C@H](CC(C)C)NC(=O)[C@H](CO)NC(=O)[C@H](CCCNC(=N)N)NC(=O)[C@H](CO)NC(=O)[C@H](CSSC2(C)C)NC1=O` [Example 85] (H-[Dap]ICSRSLP[Oic]I[Pen]IP; lactam 1-C; disulfide 3-11), the IC50 in experiment [1] stood at 1000 nM; in experiment [2] it was 1000 nM; in experiment [3], 3130 nM.

In the case of `CC[C@H](C)[C@@H]1NC(=O)CCCCCNC(=O)[C@@H]2CCCN2C(=O)[C@H]([C@@H](C)CC)NC(=O)[C@H]2NC(=O)[C@H]([C@@H](C)CC)NC(=O)[C@@H]3CCCN3C(=O)[C@@H]3CCCN3C(=O)[C@H](CC(C)(C)C)NC(=O)[C@H](CO)NC(=O)[C@H](CCCNC(=N)N)NC(=O)[C@H](CO)NC(=O)[C@H](CSSC2(C)C)NC1=O` [Example 51] (cyclo([Ahx]ICSRS[tBuAla]PPI[Pen]IP); disulfide 3-11), the results for the IC50 in experiment [1], in experiment [2] and in experiment [3] were 17 nM, 6.3 nM and 28.2 nM, respectively.

With `CC[C@H](C)[C@@H]1NC(=O)[C@H]2NC(=O)[C@H]([C@@H](C)CC)NC(=O)[C@@H]3CCCN3C(=O)[C@@H]3CCCN3C(=O)[C@H](CC(C)(C)C)NC(=O)[C@H](CO)NC(=O)[C@H](CCCNC(=N)N)NC(=O)[C@H](CO)NC(=O)[C@H](CSSC2(C)C)NC(=O)[C@H]([C@@H](C)CC)NC(=O)[C@@H](N)CCCNC1=O` [Example 66, N-{3-[(5aS,11S,14S,17S,20S,23R,26S,29R,35S,38S,41S,43aS)-29-amino-26,35,41-tri[(2S)-butan-2-yl]-11-(2,2-dimethylpropyl)-14,20-bis(hydroxymethyl)-44,44-dimethyl-5,10,13,16,19,22,25,28,34,37,40,43-dodecaoxodotetracontahydro-5H-23,38-(methanodithiomethano)dipyrrolo[2,1-1:2′,1′-o][1,4,7,10,13,16,19,22,25,28,31,34]dodecaazacyclononatriacontin-17-yl]propyl}guanidine] (H-[Orn]ICSRS[tBuAla]PPI[Pen]I; lactam 1-C; disulfide 3-11), the IC50 in experiment [1] stood at 22 nM; in experiment [2] it was 8.1 nM; in experiment [3], 25.8 nM.

As to `CC[C@H](C)[C@@H]1NC(=O)CNC(=O)CCOCCOCCOCCOCCNC(=O)[C@H](CC(=O)O)NC(=O)[C@@H]2CCCN2C(=O)[C@H]([C@@H](C)CC)NC(=O)[C@@H]2CSSC[C@H](NC1=O)C(=O)N[C@@H](CO)C(=O)N[C@@H](CCCNC(=N)N)C(=O)N[C@@H](CO)C(=O)N[C@@H](CC(C)C)C(=O)N1CCC[C@H]1C(=O)N1CCC[C@H]1C(=O)N[C@@H]([C@@H](C)CC)C(=O)N2` [Example 14] (cyclo(CIPD[PEG4]GICSRSLPPI); disulfide 1-8), the results for the IC50 in experiment [1] and in experiment [2] were 240 nM and 170 nM, respectively.

Turning to `CC[C@H](C)[C@@H]1NC(=O)CNC(=O)CNC(=O)[C@H](C)NC(=O)C[C@@H](C(N)=O)NC(=O)[C@@H]2CCCN2C(=O)[C@H]([C@@H](C)CC)NC(=O)[C@H]2NC(=O)[C@H]([C@@H](C)CC)NC(=O)[C@@H]3C[C@@H]4CCCC[C@@H]4N3C(=O)[C@@H]3CCCN3C(=O)[C@H](CC(C)C)NC(=O)[C@H](CO)NC(=O)[C@H](CCCNC(=N)N)NC(=O)[C@H](CO)NC(=O)[C@H](CSSC2(C)C)NC1=O` [Example 42] (AGGICSRSLP[Oic]I[Pen]IPD-NH2; disulfide 5-13; lactam N-16), the IC50 in experiment [1] is 200 nM; in experiment [2], 13 nM.

Regarding `CC[C@H](C)[C@@H]1NC(=O)CNC(=O)CCCCCNC(=O)C[C@@H](C(N)=O)NC(=O)[C@@H]2CCCN2C(=O)[C@H]([C@@H](C)CC)NC(=O)[C@@H]2CSSC[C@H](NC1=O)C(=O)N[C@@H](CO)C(=O)N[C@@H](CCCNC(=N)N)C(=O)N[C@@H](CO)C(=O)N[C@@H](CC(C)(C)C)C(=O)N1CCC[C@H]1C(=O)N1CCC[C@H]1C(=O)N[C@@H]([C@@H](C)CC)C(=O)N2C` [Example 40] ([Ahx]GICSRS[tBuAla]PPI[NMeC]IPD-NH2; disulfide 4-12; lactam N-15), the figures for the IC50 in experiment [1] and in experiment [2] were 90 nM and 7.1 nM, respectively.

Regarding `CC[C@H](C)[C@@H]1NC(=O)[C@H](C)NC(=O)CNC(=O)[C@H](C)NC(=O)[C@H](CC(=O)O)NC(=O)[C@@H]2CCCN2C(=O)[C@H]([C@@H](C)CC)NC(=O)[C@H]2NC(=O)[C@H]([C@@H](C)CC)NC(=O)[C@@H]3CCCN3C(=O)[C@@H]3CCCN3C(=O)[C@H](CC(C)(C)C)NC(=O)[C@H](CO)NC(=O)[C@H](CCCNC(=N)N)NC(=O)[C@H](CO)NC(=O)[C@H](CSSC2(C)C)NC1=O` [Example 26] (cyclo(AGAICSRS[tBuAla]PPI[Pen]IPD); disulfide 5-13), the IC50 in experiment [1] came out at 170 nM; in experiment [2] it was 12 nM.

For `CC[C@H](C)[C@@H]1NC(=O)CCCCCNC(=O)[C@H]([C@@H](C)CC)NC(=O)[C@@H]2CSSC[C@H](NC1=O)C(=O)N[C@@H](CO)C(=O)N[C@@H](CCCNC(=N)N)C(=O)N[C@@H](CO)C(=O)N[C@@H](CC(C)C)C(=O)N1CCC[C@H]1C(=O)N1[C@@H](C[C@@H]3CCCC[C@@H]31)C(=O)N[C@@H]([C@@H](C)CC)C(=O)N2` [Example 95, N-{3-[(6S,9S,12S,15S,18R,21S,31S,34R,37S,39aS,40aS,44aS,46aS)-21,31,37-tri[(2S)-butan-2-yl]-9,15-bis(hydroxymethyl)-6-(2-methylpropyl)-5,8,11,14,17,20,23,30,33,36,39,46-dodecaoxohexatetracontahydro-1H,5H-18,34-(methanodithiomethano)pyrrolo[2′,1′:15,16][1,4,7,10,13,16,19,22,25,28,31,34]dodecaazacyclotetracontino[13,12-a]indol-12-yl]propyl}guanidine] (cyclo([Ahx]ICSRSLP[Oic]ICI); disulfide 3-11), the IC50 in experiment [1] came out at 110 nM; in experiment [2], 100 nM.

`CC[C@H](C)[C@@H]1NC(=O)CNC(=O)CN(C)C(=O)CCCCCNC(=O)CC[C@@H](C(N)=O)NC(=O)[C@@H]2CCCN2C(=O)[C@H]([C@@H](C)CC)NC(=O)[C@H]2NC(=O)[C@H]([C@@H](C)CC)NC(=O)[C@@H]3C[C@@H]4CCCC[C@@H]4N3C(=O)[C@@H]3CCCN3C(=O)[C@H](CC(C)C)NC(=O)[C@H](CO)NC(=O)[C@H](CCCNC(=N)N)NC(=O)[C@H](CO)NC(=O)[C@H](CSSC2(C)C)NC1=O` [Example 76] ([Ahx][Sar]GICSRSLP[Oic]I[Pen]IPE-NH2; disulfide 5-13; lactam N-16): the IC50 in experiment [1] stood at 180 nM; in experiment [2] it was 9.7 nM.

Regarding `CC[C@H](C)[C@@H]1NC(=O)[C@@H](C)NC(=O)CNC(=O)CCCCCNC(=O)CC[C@@H](C(N)=O)NC(=O)[C@@H]2CCCN2C(=O)[C@H]([C@@H](C)CC)NC(=O)[C@H]2NC(=O)[C@H]([C@@H](C)CC)NC(=O)[C@@H]3C[C@@H]4CCCC[C@@H]4N3C(=O)[C@@H]3CCCN3C(=O)[C@H](CC(C)C)NC(=O)[C@H](CO)NC(=O)[C@H](CCCNC(=N)N)NC(=O)[C@H](CO)NC(=O)[C@H](CSSC2(C)C)NC1=O` [Example 84] ([Ahx]G[dA]ICSRSLP[Oic]I[Pen]IPE-NH2; disulfide 5-13; lactam N-16), the IC50 in experiment [1] was 87 nM; in experiment [2], 15 nM.
